Measurements taken from US8987449B2, “Medicine for treating ischemic brain injury and its sequelae, and preparation method thereof” (Haimin Lei, priority 2011, dated 2015).

Tests used:
MCAO rats = experiment: Grip strength test of the forelimb of MCAO rats; format: in vivo, rat; conditions: for Grip value (g) (3 d): model group 317.01 ± 53.81; for Grip value (g) (7 d): model group 285.58 ± 80.02
Description: 140 healthy SD male rats, weighing 280-300 g, provided by Beijing Vital River Laboratories, certificate No.: SCXK (Jing) 2002-2003. Nylon fishing wire, diameter 0.25 mm, German; YLS-13A, grip strength meter for mice and rats, Shandong Science Technology Instrument Station. The method of [Koizumi J, Yoshida […]. Experimental studies of ischemia brain edema, I: A new experimental model of cerebral embolism in rats in which recirculation can be introduced in the ischemic area[J]. […] After the rats were anesthetized and the skin thereof was disinfected by ethanol. By cutting right in the middle of the neck, the right common carotid artery, internal carotid artery and external carotid artery were separated and the common carotid artery and external carotid artery were ligated. The internal carotid artery was clamped with a bulldog clamp. A cut was made at the crotch of the external carotid artery and the internal carotid artery followed by releasing the bulldog clamp. […] Next, the external carotid artery was ligated and the nylon wire was fixed. In sham operation group, the right common carotid artery, the external carotid artery and the internal carotid artery were only exposed and separated. The rats were routinely raised in different cages. 0.5 ml penicillin was continuously injected into every mouse for three days after the surgery. […] The rats getting 1-3 point were selected for the subsequent experiment. The MCAO rats having the same point were distributed randomly and averagely to each experimental group. […] Evaluated was the change of the grip strength of the forelimb after the cerebral ischemia. A rat was put onto the pulling board making the forepaws thereof grab the cross bar. Then the tester pulled the rat backward to make its body slide backward along the board until the release of the forepaws (during this process it was made sure that the waist of the rat carried no force). The biggest grip strength was read when the forepaws released. Test was carried out twice for every rat and the bigger value was taken. The third and the seventh days after the administration were as the observation time to carry out the test. The SPSS 11.0 software pack was used to carry out the statistical analysis of all the data. The comparison of the enumeration data was carried out with X^2 test P<0.05 had statistical meaning.

Ca^2+—Mg^2+ ATPase = experiment: Ca2+-Mg2+ ATPase of MCAO rats (brain homogenate, kit); format: in vivo, rat; conditions: ischemia side brain homogenate, model group 5.32 ± 2.61
Protocol: 140 healthy SD male rats, weighing 280-300 g, provided by BeiJing Vital River Laboratories, certificate No.: SCXK (Jing) 2002-2003.
1.3 Experimental reagents: 0.9% physiological saline, Ca^2+—Mg^2+ enzyme kit
10% chloral hydrate 0.35 g/kg was injected into the abdominal cavity of a rat to anesthetize thereof. The rat was fixed as supine position. The skin was disinfected thereof by 75% medical alcohol. It was cut right in the middle of the neck. The right common carotid artery, internal carotid artery and external carotid artery were separated and the common carotid artery and external carotid artery were ligated. The internal carotid artery was clamped with a bulldog clamp. A cut was made at the crotch of the external carotid artery and the internal carotid artery followed by releasing the bulldog clamp. The nylon wire (diameter 0.25 mm, marked at a distance of 18 mm from the head end) was inserted into the cut and the insertion was stopped when some resistance was felt. The insert depth was a little longer than 18 mm to achieve the cerebral ischemia caused by middle cerebral artery occlusion. The internal carotid artery was ligated and the nylon wire was fixed. The muscle and skin were sutured layer by layer. In sham operation group, the right common carotid artery, the external carotid artery and the internal carotid artery were only exposed and separated. The rats were conventionally raised in different cages regularly. 0.5 ml penicillin was continuously injected into every rat for three days after the surgery.
The rat condition was evaluated after 6 h after the surgery when the rats were conscious according to the Zea Longa 5 grades evaluating method, wherein no apparent neurological symptom was evaluated as 0 point; not being able to completely stretch the left front claw was evaluated as 1 point; whirling leftward was evaluated as 2 point; leaning leftward when walking was evaluated as 3 point; having an epileptic seizure, losing consciousness and not being able to walk independently was evaluated as 4 point. The rats getting 1-3 point were selected for the subsequent experiment.
The rats were divided into 7 groups in the experiment, that is, sham operation group, model group, Nimodipine group, LQC-T4 large dosage group, LQC-T4 small dosage group, TMP group, and TMP+Vanillic acid group. The model rats getting 1 point were distributed randomly into the model group and other administration group, while the rats getting 2 point and 3 point were distributed randomly into above 6 groups according the above method and sham operation group was not involved in the above grouping. […]

[1] = 60 mg/kg intragastrically once a day
[2] = 120 mg/kg intragastrically once a day

Q: With `Cc1nc(C)c(C)nc1C` [TMP, tetramethylpyrazine, reference compound] as the compound, how does the “Grip value (g) (3 d)” value (MCAO rats; 37 mg/kg once a day) read?
A: Its value is 415.19 ± 26.81 g.

Q: What about the “Grip value (g) (7 d)” value (MCAO rats; 37 mg/kg once a day) of the same compound?
A: The value was 434.22 ± 50.23 g.

Q: And the “Ca—Mg ATPase activity” value (Ca^2+—Mg^2+ ATPase; 37 mg/kg once per day for 10 days)?
A: Its value is 9.13 ± 4.11.

Q: For `COCCOC(=O)C1=C(C)NC(C)=C(C(=O)OC(C)C)C1c1cccc([N+](=O)[O-])c1` (stereo not drawn) [Nimodipine, reference compound], which “Grip value (g) (3 d)” value (MCAO rats; 30 mg/kg once a day) is on record?
A: The value was 409.08 ± 65.13 g.

Q: What about the “Grip value (g) (7 d)” value (MCAO rats; 30 mg/kg once a day) of the same compound?
A: Its value is 393.08 ± 59.61 g.

Q: And the “Ca—Mg ATPase activity” value (Ca^2+—Mg^2+ ATPase; 30 mg/kg once per day for 10 days)?
A: Its value is 13.25 ± 5.73.

Q: Which results are given for `COc1cc(C(=O)OCc2nc(C)c(C)nc2C)ccc1OCc1nc(C)c(C)nc1C` [LQC-T4, (3,5,6-trimethylpyrazine-2-yl)methyl 3-methoxy-4-((3,5,6-trimethylpyrazine-2-yl)methoxy) benzoate]?
A: Grip value (g) (3 d) (MCAO rats; [1]): 395.50 ± 16.88 g; Grip value (g) (7 d) (MCAO rats; [1]): 468.81 ± 78.14 g; Grip value (g) (3 d) (MCAO rats; [2]): 386.57 ± 42.35 g; Grip value (g) (7 d) (MCAO rats; [2]): 421.68 ± 59.87 g; Ca—Mg ATPase activity (Ca^2+—Mg^2+ ATPase; 60 mg/kg intragastrically once per day for 10 days): 8.91 ± 4.05; Ca—Mg ATPase activity (Ca^2+—Mg^2+ ATPase; 120 mg/kg intragastrically once per day for 10 days): 10.07 ± 5.15
